Measured values as given in PubChem BioAssay (NCI).
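All cell lines were grown in 96-well plates and treated with compound for 48 hours. GI50: concentration for 50% inhibition of growth. TGI marks complete inhibition of growth.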

Experiments:
Experiment in all cases: inhibition of tumour cell growth, NCI panel, 48 h
SF-539 CNS = tested on: SF-539 CNS
CCRF-CEM leukemia = tested on: CCRF-CEM leukemia
OVCAR-5 ovarian = tested on: OVCAR-5 ovarian
786-0 renal = tested on: 786-0 renal
RPMI-8226 leukemia = tested on: RPMI-8226 leukemia
NCI-H23 lung = tested on: NCI-H23 lung
NCI-H522 lung = tested on: NCI-H522 lung
SN12C renal = tested on: SN12C renal
HCT-15 colon = tested on: HCT-15 colon
A498 renal = tested on: A498 renal

| SMILES | GI50 (SF-539 CNS) | TGI (SF-539 CNS) | GI50 (CCRF-CEM leukemia) | TGI (CCRF-CEM leukemia) | GI50 (OVCAR-5 ovarian) | TGI (OVCAR-5 ovarian) | GI50 (786-0 renal) | TGI (786-0 renal) | GI50 (RPMI-8226 leukemia) | TGI (RPMI-8226 leukemia) | GI50 (NCI-H23 lung) | TGI (NCI-H23 lung) | GI50 (NCI-H522 lung) | TGI (NCI-H522 lung) | GI50 (SN12C renal) | TGI (SN12C renal) | GI50 (HCT-15 colon) | TGI (HCT-15 colon) | TGI (A498 renal) | GI50 (A498 renal) |
| --- | --- | --- | --- | --- | --- | --- | --- | --- | --- | --- | --- | --- | --- | --- | --- | --- | --- | --- | --- | --- |
| C#C[C@@]1(O)[C@@H](CO)O[C@@H](n2ccc3c(N)ncnc32)[C@@H]1O | 1.9 µM | 4.44 µM | 2.3 µM | > 100 µM | 3.1 µM | 8.54 µM | 1.63 µM | 6.15 µM | 777 nM | > 100 µM | 1180 nM | 4.32 µM | 0.37 µM | 3.82 µM | 0.798 µM | 3.91 µM | 0.892 µM | 4.62 µM |  |  |
| CCOC(=O)C(Cc1ccccc1)NC(=O)OC(C)(C)C (stereo unspecified) |  | > 100 µM |  | > 100 µM |  | > 100 µM |  | > 100 µM |  |  |  | > 100 µM |  |  |  | > 100 µM |  | > 100 µM | > 100 µM |  |
| COc1cc(/C=C/c2ccc(OC(C)=O)cc2)cc(OC)c1OC |  | 60.8 µM |  | > 100 µM |  | 68.6 µM |  | > 100 µM |  | 68.6 µM |  |  |  | 81.9 µM |  | > 100 µM |  | > 100 µM | 71.8 µM |  |
| Cc1ccc2c(Nc3cccc(Cl)c3F)ncc(NC(=O)c3csc4c(N)ncnc34)c2c1 | > 100 µM | > 100 µM | 21.2 µM | > 100 µM | 0.137 µM | > 100 µM | > 100 µM | > 100 µM | 2810 nM | > 100 µM | 522 nM | > 100 µM | > 100 µM | > 100 µM | > 100 µM | > 100 µM | > 100 µM | > 100 µM |  |  |
| COc1cc([C@@H]2c3cc4c(cc3[C@@H](NCc3ccccc3)C3COC(=O)[C@@H]32)OCO4)cc(OC)c1O (stereo partly specified) |  | 26.7 µM |  | > 27.2 µM |  | > 66.6 µM |  | 12.5 µM |  | 21.2 µM |  | 23.8 µM |  |  |  | 18.8 µM |  | 33.5 µM | 19.4 µM |  |
| CNNC(=N\S(=O)(=O)c1cc(C(=O)Nc2ccc(Cl)cc2)c(Cl)cc1SCc1ccccc1)/N=C/c1ccc([N+](=O)[O-])s1 | > 100 µM | > 100 µM | > 85.1 µM | > 100 µM | > 100 µM | > 100 µM | > 100 µM | > 100 µM |  |  | > 100000 nM | > 100 µM | > 100 µM | > 100 µM | 6.6 µM | > 100 µM | 22.5 µM | > 100 µM | > 100 µM | > 100 µM |
| O=Cc1ccc(Oc2c3ccccc3nc3occc23)cc1 | 18.2 µM | 37.5 µM | 13.8 µM | 35.4 µM | 18.6 µM | 89.7 µM | 18.7 µM | 54.5 µM | 12200 nM | 48.3 µM | 15000 nM | 36 µM | 49.5 µM | > 100 µM | 7.73 µM | 24.2 µM |  |  |  |  |
| O=C1c2cc3c(cc2[C@@H]2[C@H]1c1ccc([N+](=O)[O-])cc1C(=O)N2CCCCl)OCO3 | < 0.01 µM |  |  |  | < 0.0144 µM |  | < 0.01 µM | < 0.0135 µM | < 17.1 nM | > 100 µM | < 10 nM | 0.0398 µM | < 0.01 µM | 9.64 µM | < 0.01 µM |  | < 0.0145 µM | > 40.6 µM | < 0.01 µM | < 0.01 µM |
